Data taken from publication PMC10659578, “Mechanism of stepwise electron transfer in six-transmembrane epithelial antigen of the prostate (STEAP) 1 and 2” (eLife, 2023).

Columns and labels:
STEAP2 = target: T1, STEAP2 (Homo sapiens, UniProt Q8NFT2); assay: cryo-EM structure, […] Å; assay type: binding
T1 construct: full-length (490 residues), C-terminal His6-tag cleaved by TEV protease; High Five or Sf9 insect cells; LMNG or GDN; homotrimer
T1 sequence (Q8NFT2 1-490): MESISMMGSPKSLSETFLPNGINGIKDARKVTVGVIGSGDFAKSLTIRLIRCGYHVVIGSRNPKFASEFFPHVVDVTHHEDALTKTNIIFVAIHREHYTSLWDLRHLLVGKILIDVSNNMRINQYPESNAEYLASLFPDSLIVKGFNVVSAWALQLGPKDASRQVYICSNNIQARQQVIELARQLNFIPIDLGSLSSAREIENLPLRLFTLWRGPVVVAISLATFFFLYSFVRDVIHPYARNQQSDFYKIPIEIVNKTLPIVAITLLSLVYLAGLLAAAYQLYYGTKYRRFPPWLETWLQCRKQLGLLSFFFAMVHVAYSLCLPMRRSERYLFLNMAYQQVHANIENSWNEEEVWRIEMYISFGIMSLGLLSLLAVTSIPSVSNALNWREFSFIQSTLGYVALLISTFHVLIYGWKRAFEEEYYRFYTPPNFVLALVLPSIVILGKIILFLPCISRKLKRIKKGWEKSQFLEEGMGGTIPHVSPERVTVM

[1] = target: T2, cytochrome b5 reductase (b5R) (Mus musculus, UniProt Q9DCN2); assay: rapid-scan stopped-flow FAD reduction; assay type: biochemical; conditions: anaerobic, 1.5 μM b5R with 1.5 μM STEAP1 and 10 μM NADH
T2 construct: gene Cyb5r3
T2 sequence (Q9DCN2 24-301): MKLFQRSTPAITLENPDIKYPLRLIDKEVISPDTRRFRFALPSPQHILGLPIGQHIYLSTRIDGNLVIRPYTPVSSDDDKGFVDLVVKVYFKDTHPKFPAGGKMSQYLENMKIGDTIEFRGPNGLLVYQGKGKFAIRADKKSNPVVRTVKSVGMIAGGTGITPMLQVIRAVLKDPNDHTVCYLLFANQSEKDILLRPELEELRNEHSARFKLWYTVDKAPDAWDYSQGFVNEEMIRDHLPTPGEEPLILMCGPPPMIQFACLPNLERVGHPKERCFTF

## Cc1cc2nc3c(=O)[nH]c(=O)nc-3n(C[C@H](O)[C@H](O)[C@H](O)COP(=O)(O)OP(=O)(O)OC[C@H]3O[C@@H](n4cnc5c(N)ncnc54)[C@H](O)[C@@H]3O)c2cc1C [FAD]
STEAP2; complex with NADP+ and heme, extended conformation, isoalloxazine ring in TMD, adenine stacks on Trp152 of OxRD
  cryo-EM structure, 3.2 Å: Heme, FAD, and NADP^+ are unambiguously resolved in the density map

## NC(=O)C1=CN([C@@H]2O[C@H](COP(=O)(O)OP(=O)(O)OC[C@H]3O[C@@H](n4cnc5c(N)ncnc54)[C@H](O)[C@@H]3O)[C@@H](O)[C@H]2O)C=CC1 [NADH]
[1]
  rapid-scan stopped-flow FAD reduction: intermediate B is due to fast FAD reduction in b5R by NADH

## NC(=O)c1ccc[n+]([C@@H]2O[C@H](COP(=O)(O)OP(=O)(O)OC[C@H]3O[C@@H](n4cnc5c(N)ncnc54)[C@H](OP(=O)(O)O)[C@@H]3O)[C@@H](O)[C@H]2O)c1 [NADP^+]
STEAP2; complex with FAD and heme, OxRD site
  cryo-EM structure, 3.2 Å: Heme, FAD, and NADP^+ are unambiguously resolved in the density map
